Measured values: the METLIN SMRT retention time set (Domingo-Almenara et al. 2019)

Assay: gradient 5% acetonitrile 3 min, to 50% in 2 min, to 85% in 15 min, held 3 min, 100 µL/min
Conditions: column: Zorbax Extend-C18 2.1 x 50 mm; eluents: water / acetonitrile, 0.1% formic acid
In short: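 A Zorbax Extend-C18 column (2.1 × 50 mm, 1.8 μm) run at 100 μL/min with water and acetonitrile, both containing 0.1% formic acid, separated mixtures of ~100 pure standards. The HPLC was coupled to a quadrupole time-of-flight mass spectrometer operated in positive and negative ionization mode, with dead and dwell volumes of 40 μL and 900 μL. Each retention time was taken from a computationally picked adduct peak that was then manually inspected.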

Compound	RP-LC retention time [s]
Cc1ccc(NC(=O)Nc2ccc3nncn3c2)c(C)c1	747
O=c1c2ccccc2ccc2ccccc12	1120
CC1CCN(c2cc(-n3cnc(C(=O)N4CCSCC4)c3)ncn2)CC1	719
CCCCn1c(=O)c2ccccc2n(Cc2nc(-c3ccc(OC(F)(F)F)cc3)no2)c1=O	1280
Fc1ccccc1-c1noc(Cc2nnc(-c3cccc(Br)c3)o2)n1	1110
O=C(NC1CCNCC1)c1[nH]ncc1NC(=O)c1c(Cl)cccc1Cl	639
C[C@H]1CN(C(=O)c2ccc(C#N)cc2)C[C@@H]1c1nc(-c2ccncc2)no1	717
CCN1CCN(C(=O)c2ccc3ccnc(N4CCN(c5ccc(Cl)cc5)CC4)c3c2)CC1	618
CCCCNC(=O)c1cc2n(n1)CC(C)(C(=O)NCc1ccc(F)cc1)N(C)C2=O (centres undefined)	725
CCCNC(=O)N1CCN(Cc2nc3cccnc3n2-c2ccc(CC)cc2)CC1	641
Cc1noc2ncn(CC(=O)NCCCc3ccccc3)c(=O)c12	764
CCN(CC)S(=O)(=O)c1cccc(-c2nnc(-c3ccc(OC)c(OC)c3)o2)c1	950
COc1cccc(CCC(=O)Nc2cnn(-c3ncc(N4CCCC4)cn3)c2)c1	829
COC1OC2COC(c3ccccc3)OC2C(=O)C1NC(=O)c1ccccc1 (centres undefined)	1050
CCOC(=O)c1nc(NCCN2CCOCC2)c2ccccc2n1	584
Cc1nnc2c(=O)n(CC(=O)N3CCN(c4ccccn4)CC3)c3cccnc3n12	548
COC(=O)c1ccc2c(=O)n(-c3ccc(OC)cc3)c(N3CCN(c4ccccn4)CC3)nc2c1	1290
CCC1(O)CCOC2(CCN(Cc3cc(OC)cc(OC)c3)CC2)C1 (centres undefined)	568
COc1ccc(CC(=O)N2CCCC2c2cc(C(C)C)no2)cc1 (centres undefined)	868
Cc1oncc1CN1CCN(C(=O)c2c(F)cccc2Cl)CC1	575
CCCNC(=O)N1c2ccccc2NC2=C(C(=O)CC(c3ccco3)C2)C1c1ccc(OC)cc1 (centres undefined)	805
Cc1nc(-c2noc(-c3ccncc3)n2)cn1CC(=O)N1CCN(c2ccc(F)cc2)CC1	689
COC(=O)c1ccccc1NC(=O)Cn1c(=O)n(-c2ccccc2)c(=O)c2c1cc(C)n2C	911

Compound	RP-LC retention time [s]
COc1ccc(CC(=O)NCC2(CO)CC2)cc1OC	582
COc1ccc(/C(=N/O)C(c2ccc(OC)cc2)C2C(=O)Oc3ccccc32)cc1 (centres undefined)	840
CCC(CC)C(=O)N1CCN(c2ccc(=O)n(-c3ccc(Cl)cc3)n2)CC1	887
Cc1nn(-c2ccc(-c3ccccc3)nn2)c(C)c1S(=O)(=O)N1CCN(C2CCCCC2)CC1	733
CCOC(=O)c1c(C)oc2nc(C)nc(N3CCN(c4ccccc4OC)CC3)c12	1020
Cc1cc(N2CCN(c3ccccc3)CC2)n2nc(-c3cccnc3)nc2n1	863
Cc1cc(C)cc(C(=O)NCc2ccc3c(c2)ncn3C)c1	615
COc1ccc(-c2noc(C3CCCN3C(=O)Nc3ccccc3Br)n2)cc1 (centres undefined)	1070
CCc1nc2cc(-c3noc(Cc4ccc(NC(C)=O)cc4)n3)ccc2o1	916
Cc1ccc(NC(=O)N2CCC(C(C)C(=O)Nc3cccc(Cl)c3)CC2)cc1 (centres undefined)	971
COc1ccccc1CCC(=O)N1CCCn2nc(-c3cccs3)cc2C1	702
Cc1cc(-c2nnc(-c3ccccc3)o2)c(C)n1CC(=O)Nc1ccc2c(c1)OCCO2	902
c1coc(-c2nnc(-c3cc4ccccc4o3)o2)c1	925
Cc1ccccc1-c1nc(-c2ccc(S(=O)(=O)N3CCCC3)cc2)no1	1240
Cc1nnc2n1CCN(C(=O)c1ccc(OC(F)(F)F)cc1)C2	606
COc1ccc(C)cc1NC(=O)CNC(=O)c1ccc(=O)[nH]c1	588
CCOC(=O)C1=C(CN2CCC(c3ccccc3)C2)NC(=O)NC1c1ccc(F)cc1 (centres undefined)	687
CC1CCCN(c2nc(=O)n(CC(=O)Nc3ccc(F)cc3)c3ccccc23)C1 (centres undefined)	841
CCCNC(=O)c1cc2n(n1)CC(C)(C(=O)NCc1ccc(F)cc1)N(C)C2=O (centres undefined)	688
Cc1ccc2cc(CCC(=O)N3CCC4(CC3)OCCO4)c(=O)[nH]c2c1	688
COC(=O)CCNC(=O)C1c2ccccc2C(=O)N(c2ccccc2)C12CCCCC2 (centres undefined)	826
CCc1cccc(NC(=O)Cn2cc(C(=O)N3CCCC3)c(=O)c3ccc(C)nc32)c1	753
CCCC(CCC)C(=O)Nc1cc(-c2cn3cccnc3n2)ccc1C	758

Compound	RP-LC retention time [s]
Cc1oc(C(C)C)nc1C(=O)Nc1ccc(Cl)cc1	1150
CN(C)S(=O)(=O)N1CC(c2nc(Cc3cccnc3)no2)C1	543
CCC(=O)N(C1CCOCC1)C1CCN(S(=O)(=O)c2ccc(C)cc2C)CC1	880
Cc1ccc(NC(=O)N2CC(c3nc(C)no3)C3(CCOCC3)C2)c(C)c1 (centres undefined)	731
CCC(C)n1c(=O)c2ccccc2n(Cc2nc(-c3ccc(Br)cc3)no2)c1=O (centres undefined)	1320
CCOC(=O)N1CCN(C(=O)CSc2nnc3n2CCN3c2ccc(OC)cc2)CC1	623
O=C(CN1C(=O)CCC1=O)N(Cc1ccsc1)Cc1ccco1	710
CCCNC(=O)C1CCN(S(=O)(=O)c2cc(C(=O)N(C)C)cs2)CC1	658
CC1(C(=O)NC2CCCC2)Cn2c(ccc2-c2ccco2)C(=O)N1Cc1cccnc1 (centres undefined)	657
CC1(C)CC(=O)c2cn(-c3ccccc3)c(=O)c(C(=O)Nc3cccc(C#N)c3)c2C1	1030
Cc1nc(C)c(C(=O)N2CCCC(n3c(C)cnc3C3CCC3)C2)s1 (centres undefined)	591
O=C(Cc1cccn1-c1ccc(F)cc1)NCc1ccc(F)cc1	922
CCN1C(=O)c2cccnc2Sc2cc(CNC(=O)c3cc(OC)cc(OC)c3)ccc21	777
Cc1cc(C(=O)NCC(c2cn(C)c3ccccc23)N(C)C)no1 (centres undefined)	557
COc1cc(OC)c(NC(=O)NC2CCN(c3ccc(F)cc3)C2=O)cc1Cl (centres undefined)	854
COc1ccc(-n2ccn3c(CCC(=O)N4CCN(c5ccccn5)CC4)nnc3c2=O)cc1	663
COc1ccc(-c2nc(-c3ccc4c(c3)nc(C)c(=O)n4C(C)C)no2)cc1	1160
COc1ccc(NC(=O)c2nnc(CSCC(=O)N3CCN(c4ccccn4)CC3)s2)cc1	629
Cc1ccccc1NC(=O)C1CCCN(S(=O)(=O)c2cc(-c3noc(C4CCC4)n3)cs2)C1 (centres undefined)	1130
COc1ccc2[nH]cc(CCNC(=O)c3cc(Cl)ccc3OC)c2c1	883
CCN(CC)c1nc(-c2ccc([N+](=O)[O-])cc2)nc2ccccc12	771
O=C(NCCc1csc(C2CCCN(C(=O)C3CCCC3)C2)n1)C1CCC1 (centres undefined)	718
CC1CCN(C(=O)c2cc(S(=O)(=O)N3CCC(C(=O)N4CCC(C)CC4)CC3)cn2C)CC1	883

Compound	RP-LC retention time [s]
Cc1cccc(-c2noc(C3CCCN3S(=O)(=O)c3ccc(Br)cc3)n2)c1 (centres undefined)	1230
Fc1ccc(C2Cn3nnc(-c4nc(-c5ccccc5F)no4)c3CO2)cc1 (centres undefined)	1110
CC(C)NC(=O)C1CCCN(C(=O)Nc2ccc(NC(=O)Nc3ccc(F)cc3)cc2)C1 (centres undefined)	714
CCCCN1CCN(Cc2nc3nc(C)cc(N4CCCC4)n3n2)CC1	574
COc1cccc(CC(=O)N2CCc3nc[nH]c3C2)c1	572
CCn1ccc(C(=O)Nc2ccccc2C#N)n1	744
O=C(Nc1cc(F)c(F)c(F)c1)N1C[C@H]2C[C@H](C1)[C@H]1CCCC(=O)N1C2	717
OCCNc1nc(N2CCOCC2)nc2c1cnn2-c1ccc(Cl)cc1	824
CC(C)CN1CCn2cc(C(=O)NCc3cccc(Br)c3)nc2C1	656
CCNC(=O)N1CC(n2cc(C(=O)NCCC3=CCCCC3)nn2)C1	721
O=C(NC1CC1)c1nc(C(=O)N2CCN(C3CCCCC3)CC2)cs1	601
CC(C)c1ccc(OCC(=O)Oc2ccc3c(c2)ncn3C)cc1	662
CCOC(=O)c1c(S(=O)(=O)N2CCC(C(=O)Nc3ccccc3F)CC2)c(C)n(C)c1C	851
Cc1ccc(NC(=O)CSc2ccc(N3CCCC(C(=O)NC4CC4)C3)nn2)cc1Cl (centres undefined)	698
CCOc1ccc(C(C)NC(=O)C2CCN(c3cncnc3N3CCOCC3)CC2)cc1 (centres undefined)	649
O=S(=O)(Nc1cnn(-c2ncc(N3CCCC3)cn2)c1)c1ccc2c(c1)CCCC2	983
CCc1ccc(-c2csc(Nc3cc(C)ccn3)n2)cc1	1040
CCc1ccc(CNC(=O)c2cc3n(n2)CC(C)(C(=O)NCc2ccccc2)N(C)C3=O)cc1 (centres undefined)	832
O=S(=O)(NCC1CCN(Cc2ccco2)CC1)c1ccc(F)c(Cl)c1	575
COc1ccc(-c2nc3cnccn3c2Nc2ccc(C(=O)NC3CCCCC3)cc2)cc1	798
